Ki data for 17 compounds are collected here from BindingDB's records for doi:10.1021/jm960541s (Upjohn, 1996).

The first test addresses T1, Dimer of Gag-Pol polyprotein [489-587] (Human immunodeficiency virus 1, UniProt P04585).
T1 construct: 489-587
As to the kind of experiment: Protease Inhibition Assay. The note with it: pH 5; 22 °C. An excerpt: (§1) HIV-1 protease was purified and refolded from E. coli inclusion bodies. The substrate used spans the p17-p24 processing site (R-V-S-Q-N-Y-P-I-V-Q-N-K) and was derivatized with biotin and fluorescein isothiocyanate (FITC) at the amino and carboxy termini. In the presence of HIV-l protease, the substrate is rapidly cleaved into two parts. The biotinylated amino terminal fragment binds to the avidin beads while the FITC-containing carboxy1 terminal fragment is removed through the membrane. […] The bound fluorescence is obtained by processing on an IDEXX Screen Machine. Determination of Ki values with this assay requires analysis under conditions in which substrate concentration resides substantially below Km and the inhibitor concentrations greatly exceeds the Ki value and the enzyme concentration.
Consider `CCC[C@]1(CCc2ccccc2)CC(=O)C([C@@H](CC)c2cccc(NS(=O)(=O)c3cn(C)cn3)c2)C(=O)O1` (stereo partly drawn) [N-{3-[(1S)-1-[(6S)-4-hydroxy-2-oxo-6-(2-phenylethyl)-6-propyl-5,6-dihydro-2H-pyran-3-yl]propyl]phenyl}-1-methyl-1H-imidazole-4-sulfonamide], for which the Ki (as a rule, the equilibrium dissociation constant of an inhibitor or competing ligand from its target) turned out to be 1000 pM.

Consider `CCC[C@@]1(CCc2ccccc2)CC(=O)C([C@@H](CC)c2cccc(NS(=O)(=O)c3ccc(C(F)(F)F)cn3)c2)C(=O)O1` (stereo partly drawn) [N-{3-[(1S)-1-[(6R)-4-hydroxy-2-oxo-6-(2-phenylethyl)-6-propyl-5,6-dihydro-2H-pyran-3-yl]propyl]phenyl}-5-(trifluoromethyl)pyridine-2-sulfonamide], for which affinity was put at a Ki of 32 pM.

`CCC[C@]1(CCc2ccccc2)CC(=O)C([C@H](CC)c2cccc(NS(=O)(=O)c3ccc(C#N)cn3)c2)C(=O)O1` (stereo partly drawn) [5-cyano-N-{3-[(1R)-1-[(6S)-4-hydroxy-2-oxo-6-(2-phenylethyl)-6-propyl-5,6-dihydro-2H-pyran-3-yl]propyl]phenyl}pyridine-2-sulfonamide] had a Ki of 40 pM. This Ki and that of the compound before are within 1.5-fold of each other.

Compound `CCC[C@@]1(CCc2ccccc2)CC(=O)C([C@H](CC)c2cccc(NS(=O)(=O)c3cn(C)cn3)c2)C(=O)O1` (stereo partly drawn) [N-{3-[(1R)-1-[(6R)-4-hydroxy-2-oxo-6-(2-phenylethyl)-6-propyl-5,6-dihydro-2H-pyran-3-yl]propyl]phenyl}-1-methyl-1H-imidazole-4-sulfonamide] came in with an inhibition constant (Ki) of 60 pM.

With `CCC[C@]1(CCc2ccccc2)CC(=O)C([C@H](CC)c2cccc(NS(=O)(=O)c3cn(C)cn3)c2)C(=O)O1` (stereo partly drawn) [N-{3-[(1R)-1-[(6S)-4-hydroxy-2-oxo-6-(2-phenylethyl)-6-propyl-5,6-dihydro-2H-pyran-3-yl]propyl]phenyl}-1-methyl-1H-imidazole-4-sulfonamide], the inhibition constant Ki came to 120 pM.

Compound `CCC[C@@]1(CCc2ccccc2)CC(=O)C([C@@H](CC)c2cccc(NS(=O)(=O)c3ccc(C#N)cn3)c2)C(=O)O1` (stereo partly drawn) [5-cyano-N-{3-[(1S)-1-[(6R)-4-hydroxy-2-oxo-6-(2-phenylethyl)-6-propyl-5,6-dihydro-2H-pyran-3-yl]propyl]phenyl}pyridine-2-sulfonamide] showed a Ki of 100 pM.

`CCC[C@@]1(CCc2ccccc2)CC(=O)C([C@@H](CC)c2cccc(NS(=O)(=O)c3cn(C)cn3)c2)C(=O)O1` (stereo partly drawn) [N-{3-[(1S)-1-[(6R)-4-hydroxy-2-oxo-6-(2-phenylethyl)-6-propyl-5,6-dihydro-2H-pyran-3-yl]propyl]phenyl}-1-methyl-1H-imidazole-4-sulfonamide] displayed a Ki of 300 pM.

The compound `CCC[C@]1(CCc2ccccc2)CC(=O)C([C@@H](CC)c2cccc(NS(=O)(=O)c3ccc(C(F)(F)F)cn3)c2)C(=O)O1` (stereo partly drawn) [N-{3-[(1S)-1-[(6S)-4-hydroxy-2-oxo-6-(2-phenylethyl)-6-propyl-5,6-dihydro-2H-pyran-3-yl]propyl]phenyl}-5-(trifluoromethyl)pyridine-2-sulfonamide] had a Ki of 220 pM.

Compound `CCC[C@]1(CCc2ccccc2)CC(=O)C([C@@H](CC)c2cccc(NS(=O)(=O)c3ccc(C#N)cn3)c2)C(=O)O1` (stereo partly drawn) [5-cyano-N-{3-[(1S)-1-[(6S)-4-hydroxy-2-oxo-6-(2-phenylethyl)-6-propyl-5,6-dihydro-2H-pyran-3-yl]propyl]phenyl}pyridine-2-sulfonamide] displayed an inhibition constant Ki of 120 pM. This Ki is about 1.8-fold lower than that of the compound before.

For the compound `CCC[C@]1(CCc2ccccc2)CC(=O)C([C@H](CC)c2cccc(NS(=O)(=O)c3ccc(C(F)(F)F)cn3)c2)C(=O)O1` (stereo partly drawn) [N-{3-[(1R)-1-[(6S)-4-hydroxy-2-oxo-6-(2-phenylethyl)-6-propyl-5,6-dihydro-2H-pyran-3-yl]propyl]phenyl}-5-(trifluoromethyl)pyridine-2-sulfonamide], the affinity, expressed as Ki, was 18 pM.

Compound `CCC[C@@]1(CCc2ccccc2)CC(=O)C([C@H](CC)c2cccc(NS(=O)(=O)c3ccc(C(F)(F)F)cn3)c2)C(=O)O1` (stereo partly drawn) [N-{3-[(1R)-1-[(6R)-4-hydroxy-2-oxo-6-(2-phenylethyl)-6-propyl-5,6-dihydro-2H-pyran-3-yl]propyl]phenyl}-5-(trifluoromethyl)pyridine-2-sulfonamide] displayed an inhibition constant Ki of 8 pM. This Ki lies about 2.2-fold lower than the previous one.

As for `CCC[C@@]1(CCc2ccccc2)CC(=O)C([C@H](CC)c2cccc(NS(=O)(=O)c3ccc(C#N)cn3)c2)C(=O)O1` (stereo partly drawn) [5-cyano-N-{3-[(1R)-1-[(6R)-4-hydroxy-2-oxo-6-(2-phenylethyl)-6-propyl-5,6-dihydro-2H-pyran-3-yl]propyl]phenyl}pyridine-2-sulfonamide], the inhibition constant Ki turned out to be 7 pM.

Another test concerns the target T2, Dimer of Gag-Pol polyprotein [489-587] (Human immunodeficiency virus 1, UniProt P12497).
T2 construct: 489-587
As to the kind of experiment: Protease Inhibition Assay. To be noted: pH 5; 22 °C.
From the text: as §1
As for `CCCC1(CCc2ccccc2)CC(=O)C(C(CC)c2cccc(NS(=O)(=O)c3cn(C)cn3)c2)C(=O)O1` (configuration not stated) [N-(3-{1-[4-hydroxy-2-oxo-6-(2-phenylethyl)-6-propyl-5,6-dihydro-2H-pyran-3-yl]propyl}phenyl)-1-methyl-1H-imidazole-4-sulfonamide], the Ki came to 1000 pM.

`CCCC1(CCc2ccccc2)CC(=O)C(C(CC)c2cccc(NS(=O)(=O)c3ccccc3)c2)C(=O)O1` (configuration not stated) [N-(3-{1-[4-hydroxy-2-oxo-6-(2-phenylethyl)-6-propyl-5,6-dihydro-2H-pyran-3-yl]propyl}phenyl)benzenesulfonamide] gave a Ki of 17000 pM.

`CCCC1(CCc2ccccc2)CC(=O)C(C(CC)c2cccc(NS(=O)(=O)c3cccc4cccnc34)c2)C(=O)O1` (configuration not stated) [N-(3-{1-[4-hydroxy-2-oxo-6-(2-phenylethyl)-6-propyl-5,6-dihydro-2H-pyran-3-yl]propyl}phenyl)quinoline-8-sulfonamide] gave a Ki of 3000 pM.

Take `CCCC1(CCc2ccccc2)CC(=O)C(C(CC)c2cccc(NS(=O)(=O)c3ccc(F)cc3)c2)C(=O)O1` (configuration not stated) [4-fluoro-N-(3-{1-[4-hydroxy-2-oxo-6-(2-phenylethyl)-6-propyl-5,6-dihydro-2H-pyran-3-yl]propyl}phenyl)benzene-1-sulfonamide]: the Ki is 6000 pM.

In the case of `CCCC1(CCc2ccccc2)CC(=O)C(C(CC)c2cccc(NS(=O)(=O)c3ccc(C#N)cc3)c2)C(=O)O1` (configuration not stated) [4-cyano-N-(3-{1-[4-hydroxy-2-oxo-6-(2-phenylethyl)-6-propyl-5,6-dihydro-2H-pyran-3-yl]propyl}phenyl)benzene-1-sulfonamide], the Ki is 8000 pM.
